Assay [1] concerns M1 protein-induced release of HBP from PMNs in human blood. The following applies: M1 protein 1 μg/ml, 30 min 37° C., FIG. 2 and FIG. 5B.
Protocol: HBP release. 100 μl human blood were diluted in PBS to a final volume of 1.0 ml and incubated with various PMNs-activating components for 30 min at 37° C. Cells were centrifuged (300×g for 15 min) and the supernatant was analyzed by sandwich ELISA. In order to quantify the total amount of HBP in blood, cells were lysed with 0.02% (v/v) Triton X-100, and pelleted as described above.
Assay [2] relates to purified PMNs in a mixture of plasma and M1 protein. Description: M1 protein-induced PMN aggregation, scanning electron microscopy. The format is cell-based, human. The protocol: Cell culture, neutrophil isolation, and stimulation of cells. Human PMNs were isolated from fresh heparinized blood of healthy volunteers using NIM, a single step density gradient medium, according to the instructions supplied by the manufacture. PMNs were counted with a hemocytometer, resuspended in MEM medium at 10^7 cells/ml and maintained on rotation in this medium at room temperature until use. All experiments on isolated PMNs were performed in Na-medium and initiated within 1 h of PMN isolation. Neutrophilic proteinase release was induced by PMN activation through antibody cross-linking of CD11 b/CD18 as described previously (Gautam et al., 2000, J. Exp. Med., 191, 1829-1839).
Scanning electron microscopy—Probes were gently applied to Millipore filters (Waters Corporation, Milford). Samples were then sucked down to the filters by a wet filter paper lying underneath. The filters were fixed in 2% (v/v) glutaraldehyde, 0.1 M sodium cacodylate, 0.1 M sucrose, pH 7.2 for 1 h at 4° C., and washed with 0.15 M cacodylate, pH 7.2. The filters were postfixed with 1% (w/v) osmium tetroxide, 0.15 M sodium cacodylate, pH 7.2, for 1 h at 4° C., washed, and stored in cacodylate buffer. […]

For another assay, the system named is TNF-stimulated PMNs. The following applies: Loike et al., 1991; cited from earlier work.
The subject of a further assay is PMNs. The following applies: Ruf and Patscheke, 1995; cited from earlier work.
Assay [3] deals with S. pyogenes AP1 bacteria infected mice. The format is in vivo, mouse. The following applies: s.c. AP1 bacteria with 400 μg peptide, i.v. peptide after 30 min, lungs six hours after infection, scanning electron microscopy.
The subject of assay [4] is thrombin-induced coagulation of normal plasma. The following applies: Laudano and Doolittle, 1980; cited from earlier work.
For assay [5] the test system is unchanged. Description: Clotting assay (thrombin clotting time). The format is biochemical. The following applies: human plasma, peptides 100 μg/ml, 15 min 37° C., FIG. 5A. As for the experimental part:
Clotting assay—The thrombin clotting time (TCT) was measured in a coagulometer (Amelung, Lemgo, Germany). Samples of 200 μl human citrate-treated plasma were incubated with 4 μl of peptide H-2395 or H-2940 (5 mg/ml) for 15 min at 37° C. Clotting was initiated by adding 100 μl of the TCT reagent (Sigma Chemicals, St. Louis, Mo.).

In assay [6] the test system is mice of the C57BL/6 strain.
Setting [7] is: M1 protein 15 μg/animal with peptide 400 μg/animal i.v., 30 min.

As for Gly-Pro-Arg-Pro (GPRP), the “effect on M1 protein-induced release of HBP” value in assay [1] was “blocked the mobilization of HT3P by M1 protein in a dose dependent manner”. The “M1 protein-induced PMN aggregation” value in assay [2] is listed as “inhibited the aggregation”. Further, the “adherence of TNF-stimulated PMNs to fibrinogen-coated surfaces” value with TNF-stimulated PMNs was “block adherence”. In the assay on PMNs, the “platelet-induced activation of PMNs” value was “inhibited”. Moreover, the “lung damage in infected mice” value in assay [3] is listed as “much less affected”. The clot formation entry in assay [4] is reported as “prevents clot formation”. The “thrombin-induced coagulation / clotting time” value in assay [5] is reported as “completely blocked thrombin-induced coagulation”. Further, in assay [6] (setting [7]), the “M1 protein induced lung lesions (hemorrhage and tissue destruction), light microscopy” value is “almost completely prevented”; the “M1 protein-caused lung damage, scanning electron microscopy” value is recorded as “contained no precipitates”. Further, the “ratio of lung area containing protein aggregates versus total lung area” value in assay [6] (M1 protein plus peptide i.v., six lung sections per animal, electron microscopy) was 6±2%.
